In patent publication US7398119B2, “Assessing blood brain barrier dynamics or identifying or measuring selected substances, including ethanol or toxins, in a subject by analyzing Raman spectrum signals” (Childrens Hospital Los Angeles, priority 1998, dated 2008):

Assays:
[1] = blood alcohol and brain alcohol levels; cited from earlier work
[2] = Correlation of aqueous humor glucose with rising blood glucose after ketamine/xylazine anesthesia; assay type: in vivo, New Zealand white rabbits; conditions: xylazine 7.5 mg/kg with ketamine 50 mg/kg, single intramuscular injection
Procedure: Nine female New Zealand white rabbits were used for this part of the study. They were anesthetized with ketamine (50 mg/kg) and xylazine (7.5 mg/kg) given as a single intramuscular injection. Xylazine blocks release of insulin from the pancreas and causes blood glucose to rise (K. Chalabi et al., Ophthalmic Res. 19, 289 (1987); J. Arnbjerg et al., Ophthalmic Res. 22, 265 (1990)).
Blood samples were taken from the central ear arteries at various times following the injection of anesthetic once the animals were adequately anesthetized. Whole blood was immediately measured for glucose concentration with a commercial glucometer (Glucometer Elite, Bayer). In most instances two measurements were made. The average measurements are reported. If the measurements differed by more than 20%, a third measurement was made. […]
At various times after induction of anesthesia, samples of aqueous humor were taken. […] Aqueous humor glucose concentration was measured with the glucometer in a manner similar to the blood. […]
Average blood glucose concentrations for each animal were plotted against time after anesthetic injection. Since it was not possible to obtain blood samples simultaneous with aqueous humor samples, a best-fit second-order polynomial was calculated for each animal. […] Aqueous humor glucose concentration was then plotted against the calculated simultaneous blood glucose concentration for all animals. […]

For `CCO` [alcohol, ethanol], which “concentrations that may be lethal” value [1] is on record?
The value was “above 1%”.

With `Cc1cccc(C)c1N=C1NCCCS1` [xylazine] as the compound, how does the “effect on blood glucose over time” value [2] read?
Its value is “steadily rises at variable rates”.
